According to the NIST ThermoML archive (doi:10.1016/j.jct.2017.07.024):

Assays:
[1] = refractive index (Na D-line) (dimensionless); wn = mass fraction of the nth substance listed; settings: 100 kPa, Liquid, Standard Abbe refractometry
[2] = wn = mass fraction of the nth substance listed; settings: for surface tension liquid-gas: Maximal bubble pressure; for mass density: 100 kPa, Liquid, Vibrating tube method

CCCCCCn1cc[n+](C)c1.C[C@@H](O)[C@H](N)C(=O)[O-] [1-hexyl-3-methylimidazolium DL-threoninate] + O
Settings | mass density, [2] [kg/m3] | refractive index, [1] | surface tension liquid-gas, [2] [mN/m]
288.15 K, w2 = 0.006 | 1089.58 | 1.5042 | 37.4
288.15 K, w2 = 0.0091 | 1089.35 | 1.5038 | 37.6
288.15 K, w2 = 0.012 | 1089.16 | 1.5034 | 37.8
288.15 K, w2 = 0.0149 | 1088.99 | 1.5031 | 38
288.15 K, w2 = 0.0172 | 1088.81 | 1.5028 | 38.2
293.15 K, w2 = 0.006 | 1086.27 | 1.5026 | 37
293.15 K, w2 = 0.0091 | 1086.04 | 1.5023 | 37.2
293.15 K, w2 = 0.012 | 1085.85 | 1.502 | 37.4
293.15 K, w2 = 0.0149 | 1085.68 | 1.5017 | 37.6
293.15 K, w2 = 0.0172 | 1085.5 | 1.5014 | 37.8
298.15 K, w2 = 0.006 | 1082.96 | 1.5012 | 36.7
298.15 K, w2 = 0.0091 | 1082.73 | 1.5009 | 36.9
298.15 K, w2 = 0.012 | 1082.54 | 1.5006 | 37.1
298.15 K, w2 = 0.0149 | 1082.37 | 1.5003 | 37.3
298.15 K, w2 = 0.0172 | 1082.19 | 1.5 | 37.5
303.15 K, w2 = 0.006 | 1079.61 | 1.4994 | 36.4
303.15 K, w2 = 0.0091 | 1079.38 | 1.4991 | 36.7
303.15 K, w2 = 0.012 | 1079.19 | 1.4988 | 36.9
303.15 K, w2 = 0.0149 | 1079.01 | 1.4985 | 37.1
303.15 K, w2 = 0.0172 | 1078.82 | 1.4982 | 37.3
308.15 K, w2 = 0.006 | 1076.29 | 1.4981 | 36.1
308.15 K, w2 = 0.0091 | 1076.06 | 1.4978 | 36.4
308.15 K, w2 = 0.012 | 1075.86 | 1.4974 | 36.6
308.15 K, w2 = 0.0149 | 1075.69 | 1.4971 | 36.8
308.15 K, w2 = 0.0172 | 1075.49 | 1.4968 | 37
313.15 K, w2 = 0.006 | 1073 | 1.4964 | 35.8
313.15 K, w2 = 0.0091 | 1072.76 | 1.4961 | 36.1
313.15 K, w2 = 0.012 | 1072.56 | 1.4958 | 36.3
313.15 K, w2 = 0.0149 | 1072.38 | 1.4955 | 36.5
313.15 K, w2 = 0.0172 | 1072.18 | 1.4952 | 36.7
318.15 K, w2 = 0.006 | 1069.54 | 1.495 | 35.5
318.15 K, w2 = 0.0091 | 1069.29 | 1.4947 | 35.8
318.15 K, w2 = 0.012 | 1069.09 | 1.4944 | 36
318.15 K, w2 = 0.0149 | 1068.91 | 1.4941 | 36.3
318.15 K, w2 = 0.0172 | 1068.71 | 1.4938 | 36.5
323.15 K, w2 = 0.006 | 1066.37 | 1.4933 | 35.2
323.15 K, w2 = 0.0091 | 1066.12 | 1.4929 | 35.5
323.15 K, w2 = 0.012 | 1065.91 | 1.4926 | 35.7
323.15 K, w2 = 0.0149 | 1065.72 | 1.4922 | 36
323.15 K, w2 = 0.0172 | 1065.51 | 1.4919 | 36.2
328.15 K, w2 = 0.006 | 1063.07 | 1.4918 | 34.9
328.15 K, w2 = 0.0091 | 1062.82 | 1.4914 | 35.2
328.15 K, w2 = 0.012 | 1062.61 | 1.4911 | 35.4
328.15 K, w2 = 0.0149 | 1062.42 | 1.4907 | 35.7
328.15 K, w2 = 0.0172 | 1062.21 | 1.4904 | 35.9

CCCCCn1cc[n+](C)c1.C[C@@H](O)[C@H](N)C(=O)[O-] [1-pentyl-3-methylimidazolium DL-threoninate] + O
Settings | mass density, [2] [kg/m3] | refractive index, [1] | surface tension liquid-gas, [2] [mN/m]
288.15 K, w2 = 0.0066 | 1107.18 | 1.5071 | 38.8
288.15 K, w2 = 0.0097 | 1106.95 | 1.5067 | 39
288.15 K, w2 = 0.0119 | 1106.76 | 1.5064 | 39.2
288.15 K, w2 = 0.0141 | 1106.59 | 1.5061 | 39.4
288.15 K, w2 = 0.0165 | 1106.41 | 1.5058 | 39.6
293.15 K, w2 = 0.0066 | 1103.87 | 1.5056 | 38.4
293.15 K, w2 = 0.0097 | 1103.64 | 1.5053 | 38.6
293.15 K, w2 = 0.0119 | 1103.45 | 1.505 | 38.8
293.15 K, w2 = 0.0141 | 1103.28 | 1.5047 | 39
293.15 K, w2 = 0.0165 | 1103.1 | 1.5044 | 39.2
298.15 K, w2 = 0.0066 | 1100.56 | 1.504 | 38.2
298.15 K, w2 = 0.0097 | 1100.33 | 1.5037 | 38.4
298.15 K, w2 = 0.0119 | 1100.14 | 1.5034 | 38.6
298.15 K, w2 = 0.0141 | 1099.97 | 1.5032 | 38.8
298.15 K, w2 = 0.0165 | 1099.79 | 1.5028 | 39
303.15 K, w2 = 0.0066 | 1097.21 | 1.5024 | 37.8
303.15 K, w2 = 0.0097 | 1096.98 | 1.5021 | 38.1
303.15 K, w2 = 0.0119 | 1096.79 | 1.5017 | 38.3
303.15 K, w2 = 0.0141 | 1096.61 | 1.5015 | 38.5
303.15 K, w2 = 0.0165 | 1096.42 | 1.5012 | 38.7
308.15 K, w2 = 0.0066 | 1093.89 | 1.5009 | 37.5
308.15 K, w2 = 0.0097 | 1093.66 | 1.5006 | 37.8
308.15 K, w2 = 0.0119 | 1093.46 | 1.5003 | 38
308.15 K, w2 = 0.0141 | 1093.29 | 1.5 | 38.2
308.15 K, w2 = 0.0165 | 1093.09 | 1.4997 | 38.4
313.15 K, w2 = 0.0066 | 1090.6 | 1.4992 | 37.2
313.15 K, w2 = 0.0097 | 1090.36 | 1.4988 | 37.5
313.15 K, w2 = 0.0119 | 1090.16 | 1.4984 | 37.7
313.15 K, w2 = 0.0141 | 1089.98 | 1.4982 | 37.9
313.15 K, w2 = 0.0165 | 1089.78 | 1.4978 | 38.1
318.15 K, w2 = 0.0066 | 1087.14 | 1.4977 | 36.9
318.15 K, w2 = 0.0097 | 1086.89 | 1.4974 | 37.2
318.15 K, w2 = 0.0119 | 1086.69 | 1.497 | 37.4
318.15 K, w2 = 0.0141 | 1086.51 | 1.4967 | 37.6
318.15 K, w2 = 0.0165 | 1086.31 | 1.4963 | 37.9
323.15 K, w2 = 0.0066 | 1083.97 | 1.4961 | 36.6
323.15 K, w2 = 0.0097 | 1083.72 | 1.4957 | 36.9
323.15 K, w2 = 0.0119 | 1083.51 | 1.4954 | 37.1
323.15 K, w2 = 0.0141 | 1083.32 | 1.4951 | 37.3
323.15 K, w2 = 0.0165 | 1083.11 | 1.4947 | 37.6
328.15 K, w2 = 0.0066 | 1080.67 | 1.4945 | 36.3
328.15 K, w2 = 0.0097 | 1080.42 | 1.4941 | 36.6
328.15 K, w2 = 0.0119 | 1080.21 | 1.4937 | 36.8
328.15 K, w2 = 0.0141 | 1080.02 | 1.4934 | 37
328.15 K, w2 = 0.0165 | 1079.81 | 1.4931 | 37.3
